Test: Thermodynamic aqueous solubility of crystalline Forms I and II of Compound 1 (HPLC)
Format: physicochemical
Protocol: Substance contents in test solutions were measured using HPLC Prominence/PDA detector (Shimadzu Corporation). The analytical conditions and calculation formula were as follows: […]
The thermodynamic solubility of Forms I and II was determined at pH 1.2 and pH 6.8 and in 20 mM GCDC, pH 6.8 at 37° C. with an equilibrium period for 2, 6 and 24 hours.

[1] = 20 mM GCDC (sodium glycochenodeoxycholate), pH 6.8, 37° C., 2 hrs equilibrium, average n=3
[2] = 20 mM GCDC (sodium glycochenodeoxycholate), pH 6.8, 37° C., 6 hrs equilibrium, average n=3
[3] = 20 mM GCDC (sodium glycochenodeoxycholate), pH 6.8, 37° C., 24 hrs equilibrium, average n=3
[4] = pH 6.8, 37° C., 2 hrs equilibrium, average n=3
[5] = pH 6.8, 37° C., 6 hrs equilibrium, average n=3
[6] = pH 6.8, 37° C., 24 hrs equilibrium, average n=3

SMILES | Aqueous Solubility [1] [µg/mL] | Aqueous Solubility [2] [µg/mL] | Aqueous Solubility [3] [µg/mL] | Aqueous solubility compared between Form II and Form I (in words) (37° C., overall comparison of Tables 3 and 4) | solubility at 2 h (aqueous solution, pH 1.2, 37 °C, pH 1.2, simulated gastric fluid, thermodynamic from solid, 2 hrs equilibrium, average n=3) [µg/mL] | solubility at 6 h (aqueous solution, pH 1.2, 37 °C, pH 1.2, simulated gastric fluid, thermodynamic from solid, 6 hrs equilibrium, average n=3) [µg/mL] | solubility at 24 h (aqueous solution, pH 1.2, 37 °C, pH 1.2, simulated gastric fluid, thermodynamic from solid, 24 hrs equilibrium, average n=3) [µg/mL] | Aqueous Solubility [4] [µg/mL] | Aqueous Solubility [5] [µg/mL] | Aqueous Solubility [6] [µg/mL] | Solubility compared between Form I and Form II (in words) (pH 6.8, 37° C., listed as Form II of Compound 1) | Solubility compared between Form I and Form II (in words) (20 mM GCDC, pH 6.8, 37° C.) | Aqueous Solubility (pH 1.2, 37° C., 2 hrs equilibrium, average n=3) [µg/mL] | Aqueous Solubility (pH 1.2, 37° C., 6 hrs equilibrium, average n=3) [µg/mL] | Aqueous Solubility (pH 1.2, 37° C., 24 hrs equilibrium, average n=3) [µg/mL] | Solubility compared between Form I and Form II (in words) (pH 6.8, 37° C.)
CONC(=O)Nc1ccc(-c2sc3c(c2CN(C)C)c(=O)n(-c2ccc(OC)nn2)c(=O)n3Cc2c(F)cccc2F)cc1 [Form II, N-(4-(1-(2,6-difluorobenzyl)-5-((dimethylamino)methyl)-3-(6-methoxy-3-pyridazinyl)-2,4-dioxo-1,2,3,4-tetrahydrothieno[2,3-d]pyrimidin-6-yl)phenyl)-N′-methoxyurea] | 2750 | 3300 | 4120 | more soluble than Form I of Compound 1 | > 10000 | > 10000 | > 10000 | 520 | 510 | 520 | higher aqueous solubility |  |  |  |  | 
CONC(=O)Nc1ccc(-c2sc3c(c2CN(C)C)c(=O)n(-c2ccc(OC)nn2)c(=O)n3Cc2c(F)cccc2F)cc1 [Form I, N-(4-(1-(2,6-difluorobenzyl)-5-((dimethylamino)methyl)-3-(6-methoxy-3-pyridazinyl)-2,4-dioxo-1,2,3,4-tetrahydrothieno[2,3-d]pyrimidin-6-yl)phenyl)-N′-methoxyurea] | 960 | 980 | 970 |  |  |  |  | 80 | 80 | 70 |  | lower solubility than Form II | >10000 | >10000 | >10000 | lower solubility than Form II

— patent US12338249B2, “Crystalline forms of N-(4-(1-(2,6-difluorobenzyl)-5-((dimethylamino)methyl)-3-(6-methoxy-3-pyridazinyl)-2,4-dioxo-1,2,3,4-tetrahydrothieno[2,3-d]pyrimidin-6-yl)phenyl)-N′-methoxyurea” (Sumitomo Pharma Switzerland GmbH, priority 2019, dated 2025)
